# Assay results: patent publication US10770169B2, “Method of providing a treatment to a subject based on a dynamic pathway map” (THE REGENTS OF THE UNIVERSITY OF CALIFORNIA, priority 2010, dated 2020)
# System: panel of 55 breast cancer cell lines
# Assay: Cell growth inhibition assay (Cell Titer Glo, 72 h, 9 doses; GI50, TGI, LC50)
# Type: cell-based, human
# [1] = AU565 cell line, censored GI50 values, value is the negative log10 of mol/L
# [2] = BT20 cell line, censored GI50 values, value is the negative log10 of mol/L
# [3] = BT483 cell line, censored GI50 values, value is the negative log10 of mol/L
# [4] = HCC1187 cell line, censored GI50 values, value is the negative log10 of mol/L
# [5] = HCC1428 cell line, censored GI50 values, value is the negative log10 of mol/L
# [6] = HCC1806 cell line, censored GI50 values, value is the negative log10 of mol/L
# [7] = HCC1937 cell line, censored GI50 values, value is the negative log10 of mol/L
# [8] = HCC1954 cell line, censored GI50 values, value is the negative log10 of mol/L
# [9] = HCC2185 cell line, censored GI50 values, value is the negative log10 of mol/L
# [10] = MDAMB134VI cell line, censored GI50 values, value is the negative log10 of mol/L
# [11] = MDAMB175VII cell line, censored GI50 values, value is the negative log10 of mol/L
# [12] = MDAMB468 cell line, censored GI50 values, value is the negative log10 of mol/L
# [13] = SKBR3 cell line, censored GI50 values, value is the negative log10 of mol/L
# [14] = SUM52PE cell line, censored GI50 values, value is the negative log10 of mol/L
# [15] = SUM149PT cell line, censored GI50 values, value is the negative log10 of mol/L
# [16] = SUM225CWN cell line, censored GI50 values, value is the negative log10 of mol/L
# [17] = SUM1315MO2 cell line, censored GI50 values, value is the negative log10 of mol/L
# [18] = ZR751 cell line, censored GI50 values, value is the negative log10 of mol/L
# [19] = cell line 600MPE, value is the negative log10 of mol/L
# [20] = cell line AU565, value is the negative log10 of mol/L
# [21] = cell line BT474, value is the negative log10 of mol/L
# [22] = cell line BT483, value is the negative log10 of mol/L
# [23] = cell line BT549, value is the negative log10 of mol/L
# [24] = cell line CAMA1, value is the negative log10 of mol/L
# [25] = cell line HCC70, value is the negative log10 of mol/L
# [26] = cell line HCC202, value is the negative log10 of mol/L
# [27] = cell line HCC1143, value is the negative log10 of mol/L
# [28] = cell line HCC1187, value is the negative log10 of mol/L
# [29] = cell line HCC1395, value is the negative log10 of mol/L
# [30] = cell line HCC1419, value is the negative log10 of mol/L
# [31] = cell line HCC1428, value is the negative log10 of mol/L
# [32] = cell line HCC1500, value is the negative log10 of mol/L
# [33] = cell line HCC1806, value is the negative log10 of mol/L
# [34] = cell line HCC1937, value is the negative log10 of mol/L
# [35] = cell line HCC1954, value is the negative log10 of mol/L
# [36] = cell line HCC2185, value is the negative log10 of mol/L
# [37] = cell line HCC3153, value is the negative log10 of mol/L
# [38] = cell line MCF7, value is the negative log10 of mol/L
# [39] = cell line MDAMB157, value is the negative log10 of mol/L
# [40] = cell line MDAMB175V, value is the negative log10 of mol/L
# [41] = cell line MDAMB231, value is the negative log10 of mol/L
# [42] = cell line MDAMB361, value is the negative log10 of mol/L
# [43] = cell line MDAMB468, value is the negative log10 of mol/L
# [44] = cell line SKBR3, value is the negative log10 of mol/L
# [45] = cell line SUM52PE, value is the negative log10 of mol/L
# [46] = cell line SUM149PT, value is the negative log10 of mol/L
# [47] = cell line SUM159PT, value is the negative log10 of mol/L
# [48] = cell line SUM1315MO, value is the negative log10 of mol/L
# [49] = cell line UACC893, value is the negative log10 of mol/L
# [50] = cell line ZR75B, value is the negative log10 of mol/L
# [51] = cell line ZR751, value is the negative log10 of mol/L
smiles,measurement,setting,value
CC(C)[C@H](CO)Nc1nc(Nc2cccc(Cl)c2)c2ncn(C(C)C)c2n1 [Purvalanol A],GI50,"600MPE cell line, censored GI50 values, value is the negative log10 of mol/L",4.52
same,GI50,[1],5.01
same,GI50,[2],4.56
same,GI50,[3],4.40
same,GI50,"HCC202 cell line, censored GI50 values, value is the negative log10 of mol/L",3.99
same,GI50,[4],4.74
same,GI50,[5],4.44
same,GI50,[6],4.00
same,GI50,[7],4.97
same,GI50,[8],4.43
same,GI50,[9],4.57
same,GI50,"MCF7 cell line, censored GI50 values, value is the negative log10 of mol/L",4.80
same,GI50,[10],4.26
same,GI50,[11],4.46
same,GI50,[12],4.12
same,GI50,[13],4.60
same,GI50,[14],4.79
same,GI50,[15],4.88
same,GI50,"SUM185PE cell line, censored GI50 values, value is the negative log10 of mol/L",4.69
same,GI50,[16],4.28
same,GI50,[17],5.09
same,GI50,[18],4.01
same,GI50,[19],4.52
same,GI50,[20],5.01
same,GI50,"cell line BT20, value is the negative log10 of mol/L",4.56
same,GI50,[21],3.78
same,GI50,[22],4.40
same,GI50,[23],3.78
same,GI50,[24],3.86
same,GI50,[25],3.78
same,GI50,[26],3.99
same,GI50,[27],3.78
same,GI50,[28],4.74
same,GI50,[29],3.78
same,GI50,[30],3.78
same,GI50,[31],4.44
same,GI50,[32],3.95
same,GI50,[33],4.00
same,GI50,[34],4.97
same,GI50,[35],4.43
same,GI50,[36],4.57
same,GI50,[37],3.83
same,GI50,[38],4.80
same,GI50,"cell line MDAMB134V, value is the negative log10 of mol/L",4.26
same,GI50,[39],3.78
same,GI50,[40],4.46
same,GI50,[41],3.78
same,GI50,[42],3.78
same,GI50,"cell line MDAMB436, value is the negative log10 of mol/L",3.78
same,GI50,[43],4.12
same,GI50,[44],4.60
same,GI50,[45],4.79
same,GI50,[46],4.88
same,GI50,[47],3.78
same,GI50,"cell line SUM185PE, value is the negative log10 of mol/L",4.69
same,GI50,"cell line SUM225CWN, value is the negative log10 of mol/L",4.28
same,GI50,[48],5.09
same,GI50,"cell line T47D, value is the negative log10 of mol/L",3.78
same,GI50,[49],3.78
same,GI50,[50],3.78
same,GI50,[51],4.01
O=c1[nH]c(=O)n([C@H]2C[C@H](O)[C@@H](CO)O2)cc1F [5-FdUR],GI50,[1],4.97
same,GI50,[2],3.49
same,GI50,"BT474 cell line, censored GI50 values, value is the negative log10 of mol/L",3.29
same,GI50,[3],4.13
same,GI50,"CAMA1 cell line, censored GI50 values, value is the negative log10 of mol/L",3.92
same,GI50,"HCC38 cell line, censored GI50 values, value is the negative log10 of mol/L",4.00
same,GI50,"HCC70 cell line, censored GI50 values, value is the negative log10 of mol/L",3.67
same,GI50,"HCC1143 cell line, censored GI50 values, value is the negative log10 of mol/L",4.02
same,GI50,[4],3.81
same,GI50,"HCC1395 cell line, censored GI50 values, value is the negative log10 of mol/L",3.60
same,GI50,"HCC1419 cell line, censored GI50 values",2.73
same,GI50,[5],3.91
same,GI50,"HCC1500 cell line, censored GI50 values, value is the negative log10 of mol/L",4.21
same,GI50,[6],4.02
same,GI50,[7],3.37
same,GI50,[8],3.99
same,GI50,[9],3.12
same,GI50,"HCC3153 cell line, censored GI50 values, value is the negative log10 of mol/L",3.24
same,GI50,"LY2 cell line, censored GI50 values, value is the negative log10 of mol/L",5.01
same,GI50,[10],3.15
same,GI50,[11],4.69
same,GI50,"MDAMB231 cell line, censored GI50 values, value is the negative log10 of mol/L",3.10
same,GI50,[12],3.22
same,GI50,[13],3.66
same,GI50,[14],3.49
same,GI50,[15],4.11
same,GI50,"SUM159PT cell line, censored GI50 values, value is the negative log10 of mol/L",4.49
same,GI50,[16],3.71
same,GI50,[17],3.13
same,GI50,"T47D cell line, censored GI50 values, value is the negative log10 of mol/L",3.48
same,GI50,"UACC812 cell line, censored GI50 values, value is the negative log10 of mol/L",4.34
same,GI50,"ZR75B cell line, censored GI50 values, value is the negative log10 of mol/L",5.16
same,GI50,[18],5.27
same,GI50,[19],4.11
same,GI50,[20],5.18
same,GI50,[21],3.17
same,GI50,[22],4.48
same,GI50,[23],3.74
same,GI50,[24],3.51
same,GI50,"cell line HCC38, value is the negative log10 of mol/L",3.72
same,GI50,[25],4.05
same,GI50,[26],4.41
same,GI50,[27],3.69
same,GI50,[28],3.18
same,GI50,[29],3.13
same,GI50,[30],3.77
same,GI50,[31],4.99
same,GI50,[32],4.23
same,GI50,[33],4.59
same,GI50,[34],3.64
same,GI50,[35],4.78
same,GI50,[36],3.42
same,GI50,[37],3.45
same,GI50,"cell line LY2, value is the negative log10 of mol/L",4.41
same,GI50,[38],4.39
same,GI50,cell line MDAMB134V,2.01
same,GI50,[39],3.11
same,GI50,[40],3.95
same,GI50,[41],3.75
same,GI50,[42],3.84
same,GI50,cell line MDAMB436,2.97
same,GI50,"cell line MDAMB453, value is the negative log10 of mol/L",4.01
same,GI50,[43],3.71
same,GI50,[44],4.48
same,GI50,[45],4.40
same,GI50,[46],4.14
same,GI50,[47],4.68
same,GI50,cell line SUM185PE,2.53
same,GI50,[48],3.37
same,GI50,"cell line UACC812, value is the negative log10 of mol/L",4.02
same,GI50,[49],3.30
same,GI50,[50],4.95
same,GI50,[51],4.51
